Data as given in ChEMBL document CHEMBL1128309, “Antitumor activity of 9(R)-dihydrotaxane analogs” (1995).

What was measured:
Type in all cases: functional
[1] = ED50 compared to that of taxol.
A549 = experiment: Cytotoxicity against human lung carcinoma A549 cell line
HT-29 = experiment: Cytotoxicity against human colon adenocarcinoma HT-29 cell line
B16-F10 = experiment: Cytotoxicity against mouse melanoma B16F10 cell line
P388 = experiment: Cytotoxicity against mouse lymphocytic leukemia P388 cell line

Structure (SMILES)	Ratio [1]	Cytotoxicity (A549) [ng/mL]	Cytotoxicity (HT-29) [ng/mL]	Cytotoxicity (B16-F10) [ng/mL]	Cytotoxicity (P388) [ng/mL]
CC(=O)O[C@@H]1C2=C(C)[C@@H](OC(=O)[C@H](O)[C@@H](NC(=O)c3ccccc3)c3ccccc3)C[C@@](O)([C@@H](OC(=O)c3ccccc3)[C@@H]3[C@]4(OC(C)=O)CO[C@@H]4C[C@H](OCCO)[C@@]3(C)[C@H]1O)C2(C)C	1.77	39	10	119	170
CO[C@H]1C[C@H]2OC[C@@]2(OC(C)=O)[C@H]2[C@H](OC(=O)c3ccccc3)[C@]3(O)C[C@H](OC(=O)[C@H](O)[C@@H](NC(=O)OC(C)(C)C)c4ccccc4)C(C)=C([C@@H](OC(C)=O)[C@H](O)[C@]12C)C3(C)C	0.35	0.27	0.15	0.2	0.6
CC(=O)O[C@@H]1C2=C(C)[C@@H](OC(=O)[C@H](O)[C@@H](NC(=O)c3ccccc3)c3ccccc3)C[C@@](O)([C@@H](OC(=O)c3ccccc3)[C@@H]3[C@]4(OC(C)=O)CO[C@@H]4C[C@H](O)[C@@]3(C)[C@H]1O)C2(C)C (stereo in doubt; 2) [listing 1 of 2 here]	–	22	9.6	25	57
CO[C@H]1[C@H](OC(C)=O)C2=C(C)[C@@H](OC(=O)[C@H](O)[C@@H](NC(=O)OC(C)(C)C)c3ccccc3)C[C@@](O)([C@@H](OC(=O)c3ccccc3)[C@@H]3[C@]4(OC(C)=O)CO[C@@H]4C[C@H](O)[C@]31C)C2(C)C	0.51	0.1	0.5	0.9	1.3
CC(=O)O[C@@H]1C2=C(C)[C@@H](OC(=O)[C@H](O)[C@@H](NC(=O)c3ccccc3)c3ccccc3)C[C@@](O)([C@@H](OC(=O)c3ccccc3)[C@@H]3[C@]4(OC(C)=O)CO[C@@H]4C[C@H](O)[C@@]3(C)[C@H]1O)C2(C)C (stereo in doubt; 14a) [listing 1 of 2 here]	–	11	1.9	39	140
CC(=O)O[C@@]12CO[C@@H]1C[C@H](O)[C@]1(C)[C@@H]2[C@H](OC(=O)c2ccccc2)[C@]2(O)C[C@H](OC(=O)[C@H](O)[C@@H](NC(=O)OC(C)(C)C)c3ccccc3)C(C)=C([C@@H](O)[C@@H]1O)C2(C)C	1.31	0.26	0.65	0.4	2.8
CC(=O)O[C@@H]1C2=C(C)[C@@H](OC(=O)[C@H](O)[C@@H](NC(=O)c3ccccc3)c3ccccc3)C[C@@](O)([C@@H](OC(=O)c3ccccc3)[C@@H]3[C@]4(OC(C)=O)CO[C@@H]4C[C@@H]4OC(C)(C)O[C@@H]1[C@]43C)C2(C)C	0.76	34	29	34	42
CCN(CC)CCO[C@H]1C[C@H]2OC[C@@]2(OC(C)=O)[C@H]2[C@H](OC(=O)c3ccccc3)[C@]3(O)C[C@H](OC(=O)[C@H](O)[C@@H](NC(=O)c4ccccc4)c4ccccc4)C(C)=C([C@@H](OC(C)=O)[C@H](O)[C@]12C)C3(C)C	2.61	400	108	110	310
CC(=O)O[C@@H]1C2=C(C)[C@@H](OC(=O)[C@H](O)[C@@H](NC(=O)c3ccccc3)c3ccccc3)C[C@@](O)([C@@H](OC(=O)c3ccccc3)[C@@H]3[C@]4(OC(C)=O)CO[C@@H]4C[C@H](OCC(O)CO)[C@@]3(C)[C@H]1O)C2(C)C (some centres undefined)	2.02	626	310	>1000	>1000
CC(=O)O[C@@H]1C2=C(C)[C@@H](OC(=O)[C@H](O)[C@@H](NC(=O)c3ccccc3)c3ccccc3)C[C@@](O)([C@@H](OC(=O)c3ccccc3)[C@@H]3[C@]4(OC(C)=O)CO[C@@H]4C[C@H](O)[C@@]3(C)[C@H]1O)C2(C)C (stereo in doubt; 2) [listing 2 of 2 here]	0.75	–	–	–	–
CC(=O)O[C@@H]1C2=C(C)[C@@H](OC(=O)[C@H](O)[C@@H](NC(=O)c3ccccc3)c3ccccc3)C[C@@](O)([C@@H](OC(=O)c3ccccc3)[C@@H]3[C@]4(O)CO[C@@H]4C[C@H](O)[C@@]3(C)[C@H]1O)C2(C)C	> 10	>1000	>1000	>1000	>1000
CC(=O)O[C@@H]1C2=C(C)[C@@H](OC(=O)[C@H](O)[C@@H](NC(=O)c3ccccc3)c3ccccc3)C[C@@](O)([C@@H](OC(=O)c3ccccc3)[C@@H]3[C@]4(OC(C)=O)CO[C@@H]4C[C@H](OC(C)=O)[C@@]3(C)[C@H]1OC(C)=O)C2(C)C	0.91	15	3.3	13	22
CO[C@H]1[C@H](OC(C)=O)C2=C(C)[C@@H](OC(=O)[C@H](O)[C@@H](NC(=O)c3ccccc3)c3ccccc3)C[C@@](O)([C@@H](OC(=O)c3ccccc3)[C@@H]3[C@]4(OC(C)=O)CO[C@@H]4C[C@H](O)[C@]31C)C2(C)C	1.74	4.7	3.1	4.8	7.8
CCC1O[C@H]2C[C@H]3OC[C@@]3(OC(C)=O)[C@H]3[C@H](OC(=O)c4ccccc4)[C@]4(O)C[C@H](OC(=O)[C@H](O)[C@@H](NC(=O)c5ccccc5)c5ccccc5)C(C)=C([C@@H](OC(C)=O)[C@H](O1)[C@]23C)C4(C)C (some centres undefined)	–	23	16	15	22
CC(=O)O[C@H]1C(=O)[C@@]2(C)[C@H]([C@H](OC(=O)c3ccccc3)[C@]3(O)C[C@H](OC(=O)[C@H](O)[C@@H](NC(=O)c4ccccc4)c4ccccc4)C(C)=C1C3(C)C)[C@]1(OC(C)=O)CO[C@@H]1C[C@@H]2O [PACLITAXEL]	1	4.3	3.5	6.3	11
C=CCO[C@H]1C[C@H]2OC[C@@]2(OC(C)=O)[C@H]2[C@H](OC(=O)c3ccccc3)[C@]3(O)C[C@H](OC(=O)[C@H](O)[C@@H](NC(=O)c4ccccc4)c4ccccc4)C(C)=C([C@@H](OC(C)=O)[C@H](O)[C@]12C)C3(C)C	1.4	1	1.2	2.7	5.3
CC(=O)O[C@@H]1C2=C(C)[C@@H](OC(=O)[C@H](O)[C@@H](NC(=O)c3ccccc3)c3ccccc3)C[C@@](O)([C@@H](OC(=O)c3ccccc3)[C@@H]3[C@]4(OC(C)=O)CO[C@@H]4C[C@H](O)[C@@]3(C)[C@H]1O)C2(C)C (stereo in doubt; 14a) [listing 2 of 2 here]	0.83	–	–	–	–
CC(=O)OCCO[C@H]1C[C@H]2OC[C@@]2(OC(C)=O)[C@H]2[C@H](OC(=O)c3ccccc3)[C@]3(O)C[C@H](OC(=O)[C@H](O)[C@@H](NC(=O)c4ccccc4)c4ccccc4)C(C)=C([C@@H](OC(C)=O)[C@H](O)[C@]12C)C3(C)C	2.47	120	31	43	79
CC(=O)O[C@@H]1C2=C(C)[C@@H](OC(=O)[C@H](O)[C@@H](NC(=O)c3ccccc3)c3ccccc3)C[C@@](O)([C@@H](OC(=O)c3ccccc3)[C@@H]3[C@]4(OC(C)=O)CO[C@@H]4C[C@@H]4OC(=S)O[C@@H]1[C@]43C)C2(C)C	2.78	19	11	20	35
CO[C@H]1C[C@H]2OC[C@@]2(OC(C)=O)[C@H]2[C@H](OC(=O)c3ccccc3)[C@]3(O)C[C@H](OC(=O)[C@H](O)[C@@H](NC(=O)c4ccccc4)c4ccccc4)C(C)=C([C@@H](OC(C)=O)[C@H](O)[C@]12C)C3(C)C	0.92	1.2	1.4	1.5	3.9
